Experiment [1] deals with Corynebacterium glutamicum. The experiment in a line: Antimicrobial activity against Corynebacterium glutamicum by serial dilution method. The format is functional.
For experiment [2], the system named is Mycolicibacterium phlei. The experiment in a line: Antimicrobial activity against Mycobacterium phlei by serial dilution method. The format is functional.
Experiment [3] has as its system Escherichia coli. Briefly: Antimicrobial activity against Escherichia coli by serial dilution method. The format is functional.
The test system of experiment [4] is Saccharomyces cerevisiae. The experiment in a line: Antimicrobial activity against Saccharomyces cerevisiae by serial dilution method. In kind it is functional.
In experiment [5] the test system is Micrococcus luteus. The experiment in a line: Antimicrobial activity against Micrococcus luteus by serial dilution method. The format is functional.
Experiment [6] deals with Agromyces mediolanus. Briefly: Antimicrobial activity against Corynebacterium mediolanum by serial dilution method. In kind it is functional.
Experiment [7] has as its system Bacillus subtilis. Briefly: Antimicrobial activity against Bacillus subtilis by serial dilution method. The format is functional.
The subject of experiment [8] is Staphylococcus aureus. The experiment in a line: Antimicrobial activity against Staphylococcus aureus by serial dilution method. The format is functional.
Experiment [9] relates to Mycobacterium sp. Briefly: Antimicrobial activity against Mycobacterium sp. by serial dilution method. In kind it is functional, organism-based.
The test system of experiment [10] is Gordonia rubripertincta. The experiment in a line: Antimicrobial activity against Nocardia coralline by serial dilution method. In kind it is functional.

From ChEMBL document CHEMBL2062489, “Design, synthesis and biological evaluation of simplified side chains of the macrolide antibiotic etnangien” (2012) come the findings set out here.

In brackets after ≈: the same amount, converted by molar mass. Activity calls are given as the source filed them. The rule behind the calls is not given here.

As to `COC(=O)CC/C=C/[C@@H](O)C/C=C/C=C/C=C/CC/C=C/C=C/[C@@H](O)[C@@H](C)CO`, the minimum inhibitory concentration (MIC) – broadly, the lowest concentration found to suppress growth – is 80 µg/mL (≈ 198 µM) in experiment [1]; above 40 µg/mL in experiment [2]; above 80 µg/mL in experiment [3]; above 80 µg/mL in [4]; above 80 µg/mL in experiment [5]; 40 µg/mL (≈ 98.9 µM) in experiment [6]. In addition, the values for the MIC in experiment [7] and in experiment [8] were 20 µg/mL (≈ 49.4 µM) and 80 µg/mL (≈ 198 µM), respectively.

For the compound `COC(=O)CC/C=C/[C@@H](O)C/C=C/C=C/C=C/CC/C=C/C=C/[C@@H](O)[C@@H](C)COCc1ccc(OC)cc1`, the MIC was above 80 µg/mL in [1]; above 40 µg/mL in experiment [2]; above 80 µg/mL in experiment [3]; above 80 µg/mL in [4]; above 80 µg/mL in experiment [5]; above 80 µg/mL in experiment [6]. Moreover, the MIC in experiment [7] and in experiment [8] was above 80 µg/mL throughout.

`COC(=O)CC/C=C/[C@@H](O)C/C=C/C=C/C=C/C=C/C=C/[C@@H](O)[C@@H](C)CO`: the MIC is above 80 µg/mL in [1]; above 40 µg/mL in experiment [2]; above 80 µg/mL in experiment [3]; above 80 µg/mL in experiment [4]; above 80 µg/mL in experiment [5]; above 80 µg/mL in [6]. Also, the minimal inhibitory concentration (MIC) in experiment [7] and in [8] was above 80 µg/mL throughout.

Consider `CO[C@@H]1C/C=C\C=C\C[C@H](C)[C@@H](O)[C@H](C)[C@@H](O)[C@H](C)[C@H](O)CC(=O)O[C@H]([C@H](C)[C@H](O)/C=C(C)/C=C/C=C/C=C/C=C/C=C/C[C@H](O)/C(C)=C/CCC(=O)O)C[C@H](O)CCC1` [ETNANGIEN], for which the MIC in experiment [1] is 0.03 µg/mL (≈ 0.0357 µM); in experiment [2], 0.12 µg/mL (≈ 0.143 µM); in experiment [3], above 80 µg/mL; in [4], above 80 µg/mL; in experiment [5], 0.39 µg/mL (≈ 0.464 µM); in experiment [6], 0.06 µg/mL (≈ 0.0713 µM). The MIC in [7] was 10 µg/mL (≈ 11.9 µM); in [8], 1 µg/mL (≈ 1.19 µM). Further, the outcome in experiment [9] and in experiment [10] was Active.

In the case of `COC(=O)CC/C=C(\C)[C@@H](O)C/C=C/C=C/C=C/C=C/C=C/C(C)=C/[C@@H](O)[C@@H](C)[C@@H]1C[C@H](O)CCC[C@H](OC)C/C=C\C=C\C[C@H](C)[C@@H](O)[C@H](C)[C@@H](O)[C@H](C)[C@H](O)CC(=O)O1` [ETNANGIEN METHYL ESTER], the minimum inhibitory concentration (MIC) is 0.24 µg/mL (≈ 0.281 µM) in [1]; above 20 µg/mL in experiment [3]; above 40 µg/mL in experiment [4]; 0.06 µg/mL (≈ 0.0702 µM) in [5]; 20 µg/mL (≈ 23.4 µM) in [7]; 2.5 µg/mL (≈ 2.92 µM) in experiment [8]. For the same compound, the result in [9] and in experiment [10] was Active.

Turning to `COC(=O)CC/C(C)=C/[C@@H](O)C/C=C/C=C/C=C/C=C/C=C/C(C)=C/[C@@H](O)[C@@H](C)COCc1ccc(OC)cc1`, the MIC in [1], in experiment [2], in experiment [3], in experiment [4], in experiment [5] and in experiment [6] was above 40 µg/mL in each case. In addition, the minimum inhibitory concentration (MIC) in [7] and in experiment [8] was above 40 µg/mL throughout.

With `COC(=O)CC/C=C/[C@@H](O)C/C=C/C=C/C=C/C=C/C=C/[C@@H](O)[C@@H](C)COCc1ccc(OC)cc1`, the MIC was 80 µg/mL (≈ 161 µM) in [1]; above 40 µg/mL in experiment [2]; above 80 µg/mL in [3]; above 80 µg/mL in [4]; above 80 µg/mL in experiment [5]; above 80 µg/mL in experiment [6]. Also, the MIC in [7] and in experiment [8] was above 80 µg/mL in each case.
